ChEMBL document CHEMBL1201862, “PubChem BioAssay data set” (2004)
Calls of active or inactive are those of the source.

Tests used:
[1] = A549 cell cytotoxicity, dose response, cytotoxicity control, plate reader, cherry-pick, antagonist series (AID 743412); type: functional, cell-based
[2] = toxicity toward HepG2 liver cells – cell-based, plate reader, cherry-pick, antagonist series, cytotoxicity control, dose response (AID 743416); type: functional
[3] = blockers of bursicon-stimulated LGR2 cAMP reporter – cell-based, HEK293, CRE-luciferase reporter, cherry pick, set 2, dose response (AID 743343); type: functional;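 also: transfected cells were stimulated with diluted bursicon conditioned medium after compound addition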
[4] = blockade of melanocortin 4 receptor signaling – cell-based, plate reader, cherry pick, counter-screen for LGR2 antagonist project, dose response (AID 743444); type: functional;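 also: transfected HEK 293 cells stimulated with alpha-MSH peptide; potency of inhibitors of the alpha-MSH evoked signal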
[5] = viability loss in HEK293 cells – cell-based, plate reader, cherry-picked samples, cytotoxicity control, dose response (AID 743446); type: functional
[6] = luciferase reporter signal suppression in cells – H4 neuroglioma cells, luminescence, dose response (AID 1990); type: functional, cell-based
[7] = Luminescence Cell-Based Dose Response HTS to Identify Inhibitors of 5'UTR Stem-Loop Driven Prion Protein mRNA Translation in H4 Neuroglioblastoma Cells. [Related pubchem assays: 1827 (Project Summary), 1813 (Primary HTS)]; type: functional
[8] = alpha-synuclein stem-loop luciferase translation blockers – H4 neuroglioma cells, luminescence, confirmation (AID 1988); type: functional, cell-based
[9] = Trypanosoma cruzi growth suppression in host cells – NIH3T3 host cells, beta-gal luminescence, confirmation (AID 2044); type: functional, cell-based;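 also: intracellular parasites grown in NIH/3T3 mouse fibroblasts as host cells; luminescent beta-galactosidase reporter signal from transgenic T. cruzi replicating inside host cells; inhibitors lower the luminescence signal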
[10] = NIH3T3 cell viability loss – ATP luminescence, mouse fibroblasts, counter-screen, dose response (AID 2010); type: functional, cell-based;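 also: cells exposed to compound for about 90 hours before reading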
[11] = biological target: T1, RNA-binding protein pos-1 (Caenorhabditis elegans, UniProt G5EF15); assay: disruptors of C. elegans POS-1 RNA interaction – biochemical, fluorescence polarization, dose response (AID 1964);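 also: purified POS-1 fused to maltose binding protein made in E. coli; potency of compounds blocking POS-1 binding to fluorescent RNA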
T1 sequence (G5EF15 whole entry): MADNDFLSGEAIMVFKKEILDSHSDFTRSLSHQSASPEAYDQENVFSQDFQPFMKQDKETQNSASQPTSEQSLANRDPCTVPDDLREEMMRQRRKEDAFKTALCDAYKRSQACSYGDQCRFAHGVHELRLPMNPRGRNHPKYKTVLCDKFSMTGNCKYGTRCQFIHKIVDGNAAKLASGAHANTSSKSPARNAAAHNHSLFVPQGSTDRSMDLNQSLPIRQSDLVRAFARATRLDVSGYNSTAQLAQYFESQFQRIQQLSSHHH

[12] = biological target: T2, Zinc finger protein mex-5 (Caenorhabditis elegans, UniProt Q9XUB2); assay: potency of MEX-5 RNA-binding blockers – biochemical, C. elegans, fluorescence polarization, dose response (AID 1960)
T2 sequence (Q9XUB2 whole entry): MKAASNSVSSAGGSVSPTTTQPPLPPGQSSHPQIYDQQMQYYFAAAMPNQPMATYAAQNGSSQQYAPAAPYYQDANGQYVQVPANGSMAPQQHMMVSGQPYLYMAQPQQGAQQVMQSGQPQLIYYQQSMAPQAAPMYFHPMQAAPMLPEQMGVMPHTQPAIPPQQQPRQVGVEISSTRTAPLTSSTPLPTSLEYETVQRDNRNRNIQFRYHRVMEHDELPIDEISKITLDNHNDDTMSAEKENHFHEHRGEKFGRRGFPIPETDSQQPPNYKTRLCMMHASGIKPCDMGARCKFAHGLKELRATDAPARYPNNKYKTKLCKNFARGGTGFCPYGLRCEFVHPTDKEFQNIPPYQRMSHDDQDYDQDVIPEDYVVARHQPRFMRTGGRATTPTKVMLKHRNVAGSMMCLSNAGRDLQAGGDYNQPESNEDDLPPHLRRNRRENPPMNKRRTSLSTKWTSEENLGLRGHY

[13] = biological target: Heat shock protein HSP 90-alpha (Homo sapiens, UniProt P07900); type: functional, organism-based
[14] = biological target: T3, High affinity choline transporter 1 (Homo sapiens, UniProt Q9GZV3); assay: human choline transporter blockers, potency – cell-based, 5-point CRC, membrane potential dye, dose response (AID 504840); type: functional
T3 sequence (Q9GZV3 whole entry): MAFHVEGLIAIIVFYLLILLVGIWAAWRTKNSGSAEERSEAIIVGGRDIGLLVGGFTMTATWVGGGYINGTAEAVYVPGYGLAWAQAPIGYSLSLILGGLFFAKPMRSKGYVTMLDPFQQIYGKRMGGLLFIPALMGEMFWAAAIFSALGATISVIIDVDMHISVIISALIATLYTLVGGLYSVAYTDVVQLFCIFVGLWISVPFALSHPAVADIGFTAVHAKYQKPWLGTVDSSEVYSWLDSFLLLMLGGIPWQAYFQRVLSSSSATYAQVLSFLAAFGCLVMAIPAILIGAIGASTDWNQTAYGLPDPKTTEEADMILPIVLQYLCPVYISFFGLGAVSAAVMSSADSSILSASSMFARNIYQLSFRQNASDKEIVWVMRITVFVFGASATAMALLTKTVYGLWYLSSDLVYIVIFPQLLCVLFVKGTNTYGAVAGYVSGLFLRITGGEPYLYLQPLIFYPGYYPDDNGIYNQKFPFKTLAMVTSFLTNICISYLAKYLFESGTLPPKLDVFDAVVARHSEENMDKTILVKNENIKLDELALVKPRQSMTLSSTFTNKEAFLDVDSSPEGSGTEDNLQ

[15] = viability of uninfected HEp-2 cells – cell-based, HTS, cytotoxicity control for RSV inhibitor project, dose response (AID 2410); type: functional; settings: human respiratory syncytial virus
H9c2 = assay: cells; type: functional, cell-based; settings: Rattus norvegicus, H9c2, Myocardium;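 also: confirmatory concentration-response retest of ultra-high-throughput screening hits for modulation of myocardial damage; cell death induced by hydrogen peroxide oxidative stress; compound pretreatment for 60 min then peroxide exposure for 2 h; potency is for protecting the cells against peroxide damage rather than for killing them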
[16] = biological target: Induced myeloid leukemia cell differentiation protein Mcl-1 (Homo sapiens, UniProt Q07820); type: functional
Sequence of Induced myeloid leukemia cell differentiation protein Mcl-1 (Q07820 whole entry): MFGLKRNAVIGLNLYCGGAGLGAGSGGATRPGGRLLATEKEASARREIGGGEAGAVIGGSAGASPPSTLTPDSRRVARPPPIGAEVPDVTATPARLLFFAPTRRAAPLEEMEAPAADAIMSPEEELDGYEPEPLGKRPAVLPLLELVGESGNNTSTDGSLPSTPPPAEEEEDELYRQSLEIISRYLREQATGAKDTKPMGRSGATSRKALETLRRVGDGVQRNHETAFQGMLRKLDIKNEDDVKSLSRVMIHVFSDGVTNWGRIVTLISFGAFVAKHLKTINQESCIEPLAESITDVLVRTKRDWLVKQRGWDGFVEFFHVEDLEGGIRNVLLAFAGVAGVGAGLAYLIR

P388/ADR = assay: cells; type: functional; settings: Mus musculus
SN12K1 = assay: cells; type: functional; settings: Homo sapiens
P388 = assay: cells; type: functional; settings: Mus musculus
[17] = P. falciparum Dd2 growth inhibitors, dose response, SYBR Green, cherry-picked samples (AID 1159567); type: functional, cell-based

Which results are given for `Cc1ccc(C(=O)Nc2ccc3c(c2)OCCO3)c(C)c1`?
AC50 [1]: 44.6 µM (active); AC50 [2]: > 52 µM (inactive); AC50 [3]: 2.74 µM (active); AC50 [4]: 2.42 µM (active); AC50 [5]: > 52 µM (inactive)

For `[O-][n+]1c2c([n+]([O-])c3c1CCCC3)CCCC2`, which EC50 [6] is on record?
The EC50 was > 120 µM (not active).

What about the EC50 [7] of the same compound?
Its EC50 is > 120 µM (not active).

What about the EC50 [8] of the same compound?
The EC50 was > 120 µM (not active).

Which results are given for `O=[N+]([O-])c1nn(-c2ccccc2)[n+]([O-])c1NC1CCN(Cc2ccccc2)CC1`?
EC50 [6]: 14 µM (active); EC50 [7]: > 120 µM (not active); EC50 [8]: 10.9 µM (active); EC50 [9]: 0.25 µM (active); EC50 [10]: > 60 µM (not active)

Which results are given for `O=C(COc1ccc2c(c1)OCO2)Nc1nccs1`?
AC50 [1]: > 52 µM (inactive); AC50 [2]: > 52 µM (inactive); AC50 [3]: 7.13 µM (active); AC50 [4]: 10.2 µM (active); AC50 [5]: 20.6 µM (active)

With `COc1ccc(C2=CC3=C(Br)C(=O)C(C)(OC(=O)C4CCCC4)C(=O)C3=CO2)cc1` (stereo not drawn) as the compound, how does the EC50 [11] read?
The EC50 was 43.7 µM (active).

What about the EC50 [12] of the same compound?
Its EC50 is > 300 µM (not active).

What about the AC50 [13] of the same compound?
The AC50 was 1.68 µM (active).

For `COc1ccc(OC)c(/C=C2\SC(=S)N(NS(=O)(=O)c3ccccc3)C2=O)c1`, which IC50 [14] is on record?
The IC50 was 8.71 µM (active).

What does the source list for `Cn1nnnc1Sc1ncnc2scc(-c3ccccc3C(F)(F)F)c12`?
CC50 [15]: 7.66 µM (active); AC50 [1]: 20.7 µM (active); AC50 [5]: 27.9 µM (active)

For `O=C(Nc1ccccc1Br)C1CCCN1S(=O)(=O)c1cccc2nsnc12` (stereo not drawn), which CC50 [15] is on record?
Its CC50 is 33.1 µM (active).

And the IC50 [14]?
The IC50 was 13.8 µM (active).

With `Cn1c(=O)[nH]c(=O)c2c1nc(N(CCO)Cc1ccccc1)n2CCCc1ccccc1` as the compound, how does the IC50 (H9c2) read?
The IC50 was 13.8 µM (active).

Which IC50 (H9c2) does the source give for `COc1ccnc(Oc2ccccc2)c1C(=O)N=CNOCc1ccc(F)cc1Cl` here?
The IC50 was > 79 µM (inactive).

With `O=C(CSc1nc2ccccc2s1)Nc1cc(S(=O)(=O)N2CCOCC2)ccc1O` as the compound, how does the IC50 [16] read?
The IC50 was 1.75 µM (active).

With `CCOc1ccccc1/C=C(/NC(=O)c1ccccc1)C(=O)N(CC)CC` as the compound, how does the EC50 [6] read?
The EC50 was > 120 µM (not active).

And the EC50 [7]?
The EC50 was > 120 µM (not active).

What about the EC50 [8] of the same compound?
The EC50 was > 120 µM (not active).

Which IC50 [14] does the source give for `O=C(NC1CCCCC1)C(c1ccc2ncccc2c1)N(Cc1ccc2c(c1)OCO2)C(=O)c1ccc2c(c1)OCCO2` (stereo not drawn) here?
Its IC50 is 15.1 µM (active).

For `O=C(Nc1ccccc1)Oc1cccc2cccnc12`, which AC50 [13] is on record?
Its AC50 is 3.44 µM (active).

With `N=C(Cc1ccc(Cl)cc1Cl)NOC(=O)c1ccc(Br)o1` as the compound, how does the AC50 [13] read?
Its AC50 is 3.11 µM (active).

For `COc1ccc(CCNC(=O)CN(c2ccc(OC)c(OC)c2)S(C)(=O)=O)cc1`, which IC50 [16] is on record?
The IC50 was 26 µM (not active).

What does the source list for `COc1cc([C@@H]2c3cc4c(cc3[C@@H](OC3OC5COC(C)OC5C(O)C3O)[C@H]3COC(=O)[C@H]23)OCO4)cc(OC)c1O` (stereo partly drawn)?
GI50 (P388/ADR): 58.6 µM (inactive); GI50 (SN12K1): 1.17 µM (inactive); GI50 (P388): 0.275 µM (active)

With `Cc1sc2nc(CSCC(=O)N(C)CC(=O)Nc3ccc(F)cc3)nc(O)c2c1C` as the compound, how does the IC50 (H9c2) read?
Its IC50 is 7.7 µM (active).

Which IC50 (H9c2) does the source give for `C=CC[C@@H](CC(=O)NCCO)C(=O)NC[C@H](OC(=O)[C@@H](CC=C)Cc1ccc(F)cc1)c1ccccc1` here?
The IC50 was > 79 µM (inactive).

For `CCC(C)C1NC(=O)CNC(=O)C2Cc3c([nH]c4cc(O)ccc34)[S+]([O-])CC(NC(=O)CNC1=O)C(=O)NC(CC(=O)O)C(=O)N1CC(O)CC1C(=O)NC(C(C)C(O)CO)C(=O)N2` (stereo not drawn), which GI50 (P388/ADR) is on record?
The GI50 was 2.77 µM (inactive).

What about the GI50 (SN12K1) of the same compound?
The GI50 was 2.32 µM (inactive).

What about the GI50 (P388) of the same compound?
The GI50 was 2.47 µM (inactive).

With `COc1ccc(CC(N)=O)cc1OC` as the compound, how does the GI50 (P388/ADR) read?
The GI50 was > 1250 µM (inactive).

What about the GI50 (SN12K1) of the same compound?
The GI50 was > 1250 µM (inactive).

And the GI50 (P388)?
The GI50 was > 1250 µM (inactive).

Which GI50 (P388/ADR) does the source give for `CN(CCO)/N=N/c1n[nH]cc1C(N)=O` here?
The GI50 was > 100 µM (inactive).

What about the GI50 (SN12K1) of the same compound?
The GI50 was > 100 µM (inactive).

And the GI50 (P388)?
Its GI50 is > 100 µM (inactive).

Which GI50 (P388/ADR) does the source give for `O=[N+]([O-])c1cccc2c1[nH]c1c(-c3ccccc3)nccc12` here?
The GI50 was 2.52 µM (inactive).

And the GI50 (SN12K1)?
Its GI50 is 1.72 µM (inactive).

What about the GI50 (P388) of the same compound?
Its GI50 is 2.52 µM (inactive).

Which GI50 (P388/ADR) does the source give for `CN(C)CCNC(=O)c1cccc2[nH]c(-c3ccccn3)nc12` here?
The GI50 was 21.3 µM (inactive).

What about the GI50 (SN12K1) of the same compound?
The GI50 was 25.2 µM (inactive).

And the GI50 (P388)?
Its GI50 is 14.5 µM (inactive).

For `OCC#CCNCl`, which GI50 (P388/ADR) is on record?
Its GI50 is > 46 µM (inactive).

And the GI50 (SN12K1)?
Its GI50 is > 100 µM (inactive).

What about the GI50 (P388) of the same compound?
Its GI50 is 16.1 µM (inactive).

For `O=C(/C=C/c1ccccc1Cl)c1ccc(O)cc1`, which AC50 [13] is on record?
The AC50 was 4.46 µM (active).

With `Cc1ccc(-c2ccccc2[C@H]2[C@@H](C#N)N(C(=O)NC3CCCC3)[C@H]2CO)cc1` as the compound, how does the AC50 [17] read?
The AC50 was 7.19 µM (active).

With `COc1ccccc1NC(=O)N1CC[C@H]2[C@@H]1c1cc(C#Cc3ccc(F)cc3)ccc1N(C)[C@H]2CO` as the compound, how does the AC50 [17] read?
The AC50 was 4.14 µM (active).
